Each structure is given as a SMILES string.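 Test compounds were applied to cells in 96-well plates for 48 hours at 5 doses. Definition used: TGI = concentration required for complete inhibition of growth.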

Test systems include CCRF-CEM leukemia; COLO 205 colon; LOX IMVI melanoma; MDA-MB-435; NCI/ADR-RES ovarian; OVCAR-5 ovarian; SF-295 CNS; SK-MEL-28 melanoma; SN12C renal; SNB-19 CNS; 786-0 renal.
Assay in all cases: NCI tumour cell line growth inhibition, 48 h

For the compound `O=C1C=CC(=O)c2c1ccc1c3ccccc3n(-c3ccccc3[N+](=O)[O-])c21`, the TGI was over 31.6 µM in the assay on CCRF-CEM leukemia; 4.35 µM with COLO 205 colon; 4.76 µM in the assay with LOX IMVI melanoma; 5.6 µM in the assay on MDA-MB-435; 20.5 µM with NCI/ADR-RES ovarian; 37.5 µM in the assay on OVCAR-5 ovarian. The TGI is over 56.7 µM in the assay on SF-295 CNS, 50.8 µM in the assay with SK-MEL-28 melanoma, over 71.5 µM with SN12C renal and 29.3 µM in the assay on SNB-19 CNS.
With `O=C(c1ccc(Cl)cc1)N(C(=S)OCc1ccccn1)c1ccccc1`, the TGI in the assay on 786-0 renal, in the assay on CCRF-CEM leukemia, in the assay on COLO 205 colon, in the assay with LOX IMVI melanoma, in the assay with MDA-MB-435 and with NCI/ADR-RES ovarian was over 100 µM each time. For the same compound, the TGI with OVCAR-5 ovarian, in the assay with SF-295 CNS, in the assay with SK-MEL-28 melanoma, in the assay on SN12C renal and with SNB-19 CNS was over 100 µM each time.
Turning to `c1ccc2c(c1)CCc1[nH]c3c(c1-2)-c1ccccc1CC3`, the TGI in the assay on 786-0 renal, in the assay with CCRF-CEM leukemia, in the assay on COLO 205 colon, in the assay with LOX IMVI melanoma, with MDA-MB-435 and in the assay on NCI/ADR-RES ovarian was over 100 µM in each case. The TGI in the assay with OVCAR-5 ovarian, with SF-295 CNS, in the assay with SK-MEL-28 melanoma, in the assay on SN12C renal and in the assay with SNB-19 CNS was over 100 µM throughout.
For the compound `COC(=O)[C@H](CC(C)C)Nc1c(O)c2c(c(O)c1Cl)C(=O)C=CC2=O`, the TGI in the assay with 786-0 renal is over 10 µM; in the assay on CCRF-CEM leukemia it was over 10 µM; in the assay on COLO 205 colon, over 10 µM; in the assay with LOX IMVI melanoma, 5.74 µM; with MDA-MB-435, over 10 µM; with NCI/ADR-RES ovarian, over 10 µM. For the same compound, the TGI in the assay on OVCAR-5 ovarian, in the assay on SF-295 CNS, in the assay on SK-MEL-28 melanoma, with SN12C renal and with SNB-19 CNS was over 10 µM throughout.
Regarding `COC(=O)C1(C(=O)OC)N=C(C)OC1/C=C/c1ccccc1` (configuration not stated), the TGI in the assay on 786-0 renal, in the assay with CCRF-CEM leukemia, in the assay on COLO 205 colon, with LOX IMVI melanoma, with MDA-MB-435 and in the assay on NCI/ADR-RES ovarian was over 100 µM each time. In addition, the TGI with OVCAR-5 ovarian, with SF-295 CNS, with SK-MEL-28 melanoma, in the assay on SN12C renal and with SNB-19 CNS was over 100 µM throughout.
Turning to `CCOC(=O)c1[nH]cc(C)c1-c1ccc2c(-c3ccccc3)nc3ccccc3n12`, the TGI in the assay with 786-0 renal came to 12.8 µM; in the assay with CCRF-CEM leukemia, 13 µM; in the assay with COLO 205 colon, 14.2 µM; with LOX IMVI melanoma, 12.3 µM; in the assay on MDA-MB-435, 11.2 µM; in the assay on NCI/ADR-RES ovarian it was 10.3 µM. Further, the TGI is 64.5 µM in the assay with OVCAR-5 ovarian, 13.6 µM with SF-295 CNS, 14.3 µM in the assay on SK-MEL-28 melanoma and 15.2 µM with SN12C renal.
For `C/C(=N\Nc1nc2cccnc2s1)c1ccccn1`, the TGI in the assay on 786-0 renal was over 100 µM; with CCRF-CEM leukemia, over 100 µM; in the assay with COLO 205 colon, over 100 µM; in the assay on MDA-MB-435 it was over 100 µM; in the assay with NCI/ADR-RES ovarian, 0.06 µM; with OVCAR-5 ovarian, over 64.4 µM. The TGI is 3.48 µM in the assay on SF-295 CNS, over 100 µM with SK-MEL-28 melanoma, over 100 µM in the assay on SN12C renal and over 87 µM in the assay with SNB-19 CNS.
`CCOP(=O)(OCC)/C(C#N)=C/c1cnc[nH]1`: the TGI in the assay on 786-0 renal, in the assay on CCRF-CEM leukemia, with COLO 205 colon, in the assay with LOX IMVI melanoma, in the assay on MDA-MB-435 and in the assay with NCI/ADR-RES ovarian was over 100 µM each time. Moreover, the TGI with OVCAR-5 ovarian, in the assay with SF-295 CNS, in the assay on SK-MEL-28 melanoma, with SN12C renal and in the assay with SNB-19 CNS was over 100 µM each time.
On to `CCOc1cc2oc(C)cc(=O)c2c(OC)c1C=Nc1ccc(Cn2c(C)nc3ccccc32)cc1`, for which the TGI with 786-0 renal, in the assay with CCRF-CEM leukemia, in the assay on COLO 205 colon, in the assay on LOX IMVI melanoma, in the assay with MDA-MB-435 and with NCI/ADR-RES ovarian was over 100 µM throughout. Moreover, the TGI in the assay with OVCAR-5 ovarian, in the assay with SF-295 CNS, in the assay on SK-MEL-28 melanoma, in the assay on SN12C renal and in the assay with SNB-19 CNS was over 100 µM each time.
As to `CC(=O)C1=C(C)N(c2ccc(C)cc2)C2(O)C3=C(C(=O)c4ccccc4C3=O)C(O)=CC12Cl` (configuration not stated), the TGI is over 100 µM in the assay with 786-0 renal; 63.9 µM with COLO 205 colon; over 100 µM in the assay with LOX IMVI melanoma; 14.3 µM in the assay with MDA-MB-435; 28.3 µM with NCI/ADR-RES ovarian; 71.6 µM in the assay with OVCAR-5 ovarian. The TGI in the assay with SF-295 CNS is 37.3 µM; with SK-MEL-28 melanoma, 79.4 µM; in the assay on SN12C renal it was 57.9 µM; in the assay with SNB-19 CNS, 35.8 µM.
On to `CSc1ncc2c(n1)sc1c(=O)n(-c3ccccc3)cnc12`, for which the TGI in the assay with 786-0 renal, in the assay on CCRF-CEM leukemia, in the assay with COLO 205 colon, in the assay on LOX IMVI melanoma, with MDA-MB-435 and in the assay on NCI/ADR-RES ovarian was over 100 µM in each case. In addition, the TGI with OVCAR-5 ovarian, in the assay with SF-295 CNS, with SK-MEL-28 melanoma, in the assay on SN12C renal and in the assay on SNB-19 CNS was over 100 µM throughout.
As for `O=C(NCCNCCCNC(=O)c1cc(-c2ccccc2)nc2ccccc12)c1cccc(OCc2ccccc2)c1OCc1ccccc1`, the TGI in the assay with 786-0 renal was 3.09 µM; in the assay on CCRF-CEM leukemia, 3.47 µM; in the assay with COLO 205 colon, 3.11 µM; in the assay with LOX IMVI melanoma it was 2.95 µM; in the assay with MDA-MB-435, 3.04 µM; in the assay with NCI/ADR-RES ovarian it was 3.51 µM. In addition, the TGI stood at 3.37 µM in the assay on OVCAR-5 ovarian, 3.03 µM in the assay on SF-295 CNS, 3.25 µM in the assay with SK-MEL-28 melanoma and 3.24 µM with SN12C renal.

For the origin of these results see PubChem BioAssay (NCI).
